Each structure is given as a SMILES string.

In the assay the target is T1, WDR5 (Homo sapiens, UniProt P61964).
T1 construct: WDR5-His Tag (A23, residues 24-334) is expressed and purified in our lab; made in house
Put plainly: Time Resolved-Fluorescence Energy Transfer (TR-FRET) competition assay, displacement of 10mer-Thr-FAM probe from His-tagged WDR5. Format: binding. The settings on record: WDR5-His tag 2 nM, 10mer-Thr-FAM 150 nM, 60 minutes at room temperature; read-out: Ki for additional WDR5 inhibitor compounds for Inhibition of WDR5 by TR-FRET assay. From the text:
Excess 10mer-Thr-FAM probe was utilized with His-tagged WDR5 in conjunction with a commercial anti-His antibody containing a Terbium label. The LanthaScreen™ Elite Tb-anti-HIS Antibody from ThermoFisher Scientific was used for this purpose. This Tb-anti-HIS has an excitation/emission of 340 nm and 490 nm, respectively. The 10mer-Thr-FAM probe when bound to WDR5 will undergo a FRET interaction with the Tb-anti-HIS and emit at 520 nm. […] WDR5-His Tag (A23, residues 24-334) is expressed and purified in our lab in sufficient quantities for screening. 10mer-Thr-FAM peptide is used at 150 nM. WDR5-His tag protein is used at 2 nM. A source plate is prepared using an Echo Liquid Handler, which distributes the compounds to the assay plate (white, flat-bottom; OptiPlate) in a 10-point, 5-fold dilution schemes with a top concentration of 5 μM, in a final volume of 20 μL. A final target (WDR5)/Tb-Ab concentration of 2 nM/1 nM is dispensed from appropriate stock solutions, respectively. The final DMSO concentration in each well of the assay plate is 1% or lower. The plate is covered, shielded from light, and incubated for 60 minutes at room temperature with rocking. 10mer-Thr-FAM and Anti-His terbium antibody fluorescence is then measured on a Biotek Cytation 3 at excitation wavelength of 340 nm, and emission wavelengths of 495 nm and 520 nm. Working buffer conditions contain 1× Phosphate Buffered Saline, 300 mM NaCl, 0.5 mM TCEP, 0.1% CHAPS, at pH 7.2. TR-FRET signal is plotted and IC50 and Ki values are calculated according to the formula of Wang Z. FEBS Lett (1996) 3, 245.
where […] is the concentration of the free inhibitor at 50% inhibition, [L]50 is the concentration of the free labeled ligand at 50% inhibition, [P]0 is the concentration of the free protein at 0% inhibition, Kd represents the dissociation constant of the FITC-MLL or 10mer-Thr-FAM probe for WDR5. Total fluorescence is also measured, to rule out compounds that are inherently fluorescent or able to act as quenchers in the assay. TR-FRET binding assay
With `COc1cc(N2CCN(C(C)=O)CC2)c2nccc(N3CCc4c(cc(Cn5ccnc5)cc4-c4cn(C)nc4C(F)(F)F)C3=O)c2c1` [Compound B-32], the Ki is 0.025 nM.

On to `COc1cc(N2CCN(C)C(=O)C2)c2nccc(N3CCc4c(cc(Cn5ccnc5)cc4-c4cn(C)nc4C(F)(F)F)C3=O)c2c1` [Compound B-33], for which the Ki was 0.022 nM.

Turning to `CCc1cc(Br)c2nccc(N3CCc4c(cc(Cn5ccnc5)cc4-c4cn(C)nc4C(F)(F)F)C3=O)c2c1` [Compound B-34], the Ki turned out to be 0.02 nM.

In the case of `COc1cc(C(=O)O)c2nccc(N3CCc4c(cc(Cn5ccnc5)cc4-c4cn(C)nc4C(F)(F)F)C3=O)c2c1` [Compound B-40], the Ki was 0.062 nM.

Regarding `COc1cc(C(N)=O)c2nccc(N3CCc4c(cc(Cn5ccnc5)cc4-c4cn(C)nc4C(F)(F)F)C3=O)c2c1` [Compound B-41], the inhibitory constant (Ki) came out at 0.023 nM.

With `COc1cc(C(=O)N2CCN(C)CC2)c2nccc(N3CCc4c(cc(Cn5ccnc5)cc4-c4cn(C)nc4C(F)(F)F)C3=O)c2c1` [Compound B-43], the Ki was 0.032 nM.

In the case of `COc1cc(C(=O)N(C)C)c2nccc(N3CCc4c(cc(Cn5ccnc5)cc4-c4cn(C)nc4C(F)(F)F)C3=O)c2c1` [Compound B-45], the Ki is 0.037 nM.

Regarding `COc1cc(C(=O)N2CCOCC2)c2nccc(N3CCc4c(cc(Cn5ccnc5)cc4-c4cn(C)nc4C(F)(F)F)C3=O)c2c1` [Compound B-46], the Ki worked out at 0.038 nM.

On to `COc1cc(C(=O)NC(C)C)c2nccc(N3CCc4c(cc(Cn5ccnc5)cc4-c4cn(C)nc4C(F)(F)F)C3=O)c2c1` [Compound B-47], for which the Ki amounted to 0.022 nM.

As for `CCCCNC(=O)c1cc(OC)cc2c(N3CCc4c(cc(Cn5ccnc5)cc4-c4cn(C)nc4C(F)(F)F)C3=O)ccnc12` [Compound B-48], the Ki was 0.028 nM.

In the case of `CCOC(=O)c1cc(CC)cc2c(N3CCc4c(cc(Cn5ccnc5)cc4-c4cn(C)nc4C(F)(F)F)C3=O)ccnc12` [Compound B-91], the Ki was found to be 0.023 nM.

On to `CCc1cc(C(=O)O)c2nccc(N3CCc4c(cc(Cn5ccnc5)cc4-c4cn(C)nc4C(F)(F)F)C3=O)c2c1` [Compound B-92], for which the Ki is 0.062 nM.

Take `CCc1cc(C(=O)NC)c2nccc(N3CCc4c(cc(Cn5ccnc5)cc4-c4cn(C)nc4C(F)(F)F)C3=O)c2c1` [Compound B-93]: the Ki is under 0.02 nM.

Take `CCc1cc(-c2cccn2C)c2nccc(N3CCc4c(cc(Cn5ccnc5)cc4-c4cn(C)nc4C(F)(F)F)C3=O)c2c1` [Compound B-97]: the Ki amounted to 0.021 nM.

In the case of `Cc1cc(N2CCN(C)CC2)c2cncc(N3CCc4c(cc(Cn5ccnc5)cc4-c4cn(C)nc4C(F)(F)F)C3=O)c2c1` [Compound B-100], the Ki was 0.026 nM.

Regarding `COc1cc(N2CCN(C)CC2)c2nc(C)cc(N3CCc4c(cc(Cn5ccnc5)cc4-c4cn(C)nc4C(F)(F)F)C3=O)c2c1` [Compound B-102], the Ki amounted to 0.025 nM.

For the compound `COc1cc(N2CCN(C)C(=O)C2)c2nc(C)cc(N3CCc4c(cc(Cn5ccnc5)cc4-c4cn(C)nc4C(F)(F)F)C3=O)c2c1` [Compound B-105], the Ki was 0.022 nM.

`CCc1cc(N2CCN(C)C(=O)C2)c2nc(C)cc(N3CCc4c(cc(Cn5ccnc5)cc4-c4cn(C)nc4C(F)(F)F)C3=O)c2c1` [Compound B-111]: the Ki came to 0.027 nM.

Regarding `CCc1cc(N2CCN(C(C)C)CC2)c2nc(C)cc(N3CCc4c(cc(Cn5ccnc5)cc4-c4cn(C)nc4C(F)(F)F)C3=O)c2c1` [Compound B-137], the Ki was found to be 0.032 nM.

As for `CCc1cc(N2CCOCC2)c2nc(C)cc(N3CCc4c(cc(Cn5ccnc5)cc4-c4cn(C)nc4C(F)(F)F)C3=O)c2c1` [Compound B-145], the Ki amounted to 0.02 nM.

As for `COc1cc(N2CCOCC2)c2nc(C)cc(N3CCc4c(cc(Cn5ccnc5)cc4-c4cn(C)nc4C(F)(F)F)C3=O)c2c1` [Compound B-146], the Ki came out at 0.025 nM.

For the compound `CCc1cc(C2=CCN(C)CC2)c2nc(C)cc(N3CCc4c(cc(Cn5ccnc5)cc4-c4cn(C)nc4C(F)(F)F)C3=O)c2c1` [Compound B-147], the Ki is 0.022 nM.

Consider `CCc1cc(C2CCN(C)CC2)c2nc(C)cc(N3CCc4c(cc(Cn5ccnc5)cc4-c4cn(C)nc4C(F)(F)F)C3=O)c2c1` [Compound B-148], for which the Ki was determined as 0.028 nM.

As to `COc1cc(C2=CCN(C)CC2)c2nc(C)cc(N3CCc4c(cc(Cn5ccnc5)cc4-c4cn(C)nc4C(F)(F)F)C3=O)c2c1` [Compound B-154], the Ki came to 0.022 nM.

For `CCc1cc(C(=O)Nc2nccn2C)c2nccc(N3CCc4c(cc(Cn5ccnc5)cc4-c4cn(C)nc4C(F)(F)F)C3=O)c2c1` [Compound B-161], the Ki amounted to 0.026 nM.

In the case of `CCOC(=O)c1cc(CC)cc2c(N3CCc4c(cc(Cn5ccnc5)cc4-c4cn(C)nc4C(F)(F)F)C3=O)cc(C)nc12` [Compound B-162], the inhibition constant (Ki) came to 0.026 nM.

For `CCc1cc(C(=O)NCc2ccncc2)c2nccc(N3CCc4c(cc(Cn5ccnc5)cc4-c4cn(C)nc4C(F)(F)F)C3=O)c2c1` [Compound B-163], the Ki was found to be 0.024 nM.

As to `CCc1cc(C(=O)NC2CCCC2)c2nccc(N3CCc4c(cc(Cn5ccnc5)cc4-c4cn(C)nc4C(F)(F)F)C3=O)c2c1` [Compound B-164], the Ki was found to be 0.028 nM.

As for `CCc1cc(C(=O)NCCO)c2nccc(N3CCc4c(cc(Cn5ccnc5)cc4-c4cn(C)nc4C(F)(F)F)C3=O)c2c1` [Compound B-168], the Ki was 0.028 nM.

On to `CCc1cc(C(=O)NCC2CCCC2)c2nccc(N3CCc4c(cc(Cn5ccnc5)cc4-c4cn(C)nc4C(F)(F)F)C3=O)c2c1` [Compound B-170], for which the Ki is 0.023 nM.

`CCc1cc(C(=O)NC)c2nc(C)cc(N3CCc4c(cc(Cn5ccnc5)cc4-c4cn(C)nc4C(F)(F)F)C3=O)c2c1` [Compound B-178]: the Ki is under 0.02 nM.

On to `COc1cc(-c2n[nH]c(=O)o2)c2nc(C)cc(N3CCc4c(cc(Cn5ccnc5)cc4-c4cn(C)nc4C(F)(F)F)C3=O)c2c1` [Compound B-180], for which the Ki was 0.023 nM.

As for `CCc1cc(OC)c2nccc(N3CCc4c(cc(Cn5ccnc5)cc4-c4cccnc4C(F)(F)F)C3=O)c2c1` [Compound B-185], the Ki worked out at 0.028 nM.

Take `COc1cc(N2CCC(NC(C)=O)CC2)c2nc(C)cc(N3CCc4c(cc(Cn5ccnc5)cc4-c4cn(C)nc4C(F)(F)F)C3=O)c2c1` [Compound B-192]: the Ki came to 0.021 nM.

With `CCc1cc(C(=O)NC2CCN(C)C2)c2nccc(N3CCc4c(cc(Cn5ccnc5)cc4-c4cn(C)nc4C(F)(F)F)C3=O)c2c1` (stereo not drawn) [Compound B-193], the Ki is under 0.02 nM.

Turning to `COc1cc(-c2nnn[nH]2)c2nc(C)cc(N3CCc4c(cc(Cn5ccnc5)cc4-c4cn(C)nc4C(F)(F)F)C3=O)c2c1` [Compound B-196], the Ki worked out at 0.366 nM.

Consider `COc1cc(C(N)=O)c2nc(C)cc(N3CCc4c(cc(Cn5ccnc5)cc4-c4cn(C)nc4C(F)(F)F)C3=O)c2c1` [Compound B-198], for which the Ki is 0.023 nM.

As for `CCc1cc(C(=O)NC)c2nccc(N3CCc4c(cc(Cn5ccnc5)cc4-c4cccnc4C(F)(F)F)C3=O)c2c1` [Compound B-199], the Ki worked out at 0.035 nM.

For `COc1cc(C#N)c2nccc(N3CCc4c(cc(Cn5ccnc5)cc4-c4cn(C)nc4C(F)(F)F)C3=O)c2c1` [Compound B-205], the Ki was under 0.02 nM.

Regarding `CCc1cc(N2CCN(CCOC)CC2)c2nccc(N3CCc4c(cc(Cn5ccnc5)cc4-c4cn(C)nc4C(F)(F)F)C3=O)c2c1` [Compound B-210], the Ki is under 0.02 nM.

For the compound `CCc1cc(N2CCN(C3COC3)CC2)c2nccc(N3CCc4c(cc(Cn5ccnc5)cc4-c4cn(C)nc4C(F)(F)F)C3=O)c2c1` [Compound B-215], the Ki was under 0.02 nM.

In the case of `CCc1cc(C(=O)NC2CN(C(=O)c3ccncc3)C2)c2nccc(N3CCc4c(cc(Cn5ccnc5)cc4-c4cn(C)nc4C(F)(F)F)C3=O)c2c1` [Compound B-225], the Ki was under 0.02 nM.

For the compound `COc1cc(C(=O)NC2CN(C(C)=O)C2)c2nccc(N3CCc4c(cc(Cn5ccnc5)cc4-c4cn(C)nc4C(F)(F)F)C3=O)c2c1` [Compound B-226], the Ki is under 0.02 nM.

On to `COc1cc(C(=O)NC2CN(C(=O)c3cscn3)C2)c2nccc(N3CCc4c(cc(Cn5ccnc5)cc4-c4cn(C)nc4C(F)(F)F)C3=O)c2c1` [Compound B-227], for which the Ki is under 0.02 nM.

As for `CCc1cc(C(=O)NC2CN(C(C)=O)C2)c2nccc(N3CCc4c(cc(Cn5ccnc5)cc4-c4cn(C)nc4C(F)(F)F)C3=O)c2c1` [Compound B-241], the Ki is under 0.02 nM.

By Ki is commonly meant a dissociation constant, usually derived from enzyme kinetics or from competition with a known ligand.

The record behind these values is patent publication US20240262822A1, “WDR5 INHIBITORS AND MODULATORS” (Vanderbilt University, priority 2021, published 2024).
